Columns and labels:
[1] = tested on: guinea-pig ileum; experiment: Spasmolytic activity in vitro against nicotine, isolated guinea-pig ileum; conditions: for Spasmolytic activity compared with hexamethonium dibromide: nicotine 1 mg/l, relative EC50 comparison; for spasmolytic index/hexamethonium dibromide: relative index I from activity and relative toxicity, calculated in mmoles
Experimental: (§1) The spasmolytic activity of the products was studied in vitro with regard to two distinct agonists, namely:
(§2) The organ fragments were kept alive in a tank containing a solution of Tyrode (37° C., pH 7.2, oxygenated by the mixture O2 /CO2, 95%/5%).
(§3) The isotonic contractions were recorded graphically on a physiograph by means of a transducer. […] The values obtained are compared with those of spasmolytic agents selected as reference and are determined under the same experimental conditions, namely:
hexamethonium dibromide for the convulsant effect of nicotine (table V).

[2] = tested on: cornea of the rabbit; experiment: Local anaesthetic activity on contact, rabbit cornea (derived from Regnier); assay type: in vivo, rabbit (male albino); conditions: for Local anaesthetic activity: effect compared with lidocaine: 1% solution, relative to lidocaine hydrochloride at identical concentration, rabbit cornea; for local anaesthesia/lidocaine hydrochloride index: relative index I from activity and relative toxicity, calculated in mmoles
Experimental: The local anaesthetic activity on contact is determined on the cornea of the rabbit according to a method derived from the technique of Regnier (Regnier J. R. Salle P. Bull. Soc. Pharmacol. 1926 33, 91).
Male albino rabbits weighing 2 to 3 kg are used in groups of 5. The product solution to be tested is injected in a volume of 0.2 ml into the conjunctival sac. The cornea is then stimulated by means of a hair 3, 6, 10, 15, 20, 25, 45 and 60 minutes after injection.
The local anaesthetic activity is thus expressed in relation to this reference product.

[3] = tested on: rat duodenum; experiment: Spasmolytic activity in vitro against barium chloride, isolated rat duodenum; conditions: for Spasmolytic activity compared with papaverine hydrochloride / spasmolytic index/papaverine hydrochloride: rat duodenum; for Spasmolytic activity compared with papaverine hydrochloride: BaCl2 50 mg/l, relative EC50 comparison; for spasmolytic index/papaverine hydrochloride: relative index I from activity and relative toxicity, calculated in mmoles; for relative index of spasmolytic activity compared with papaverine: summary statement, times higher than the reference
Experimental: as §1, §2, §3
papaverine hydrochloride for the convulsant effect of barium chloride;

[4] = in vivo; conditions: mouse
Experimental: The acute toxicity of the products of the invention was determined on groups of 20 Swiss OF1 mice weighing 22 to 24 grams by intravenous route.

[5] = tested on: inflammation in the paw of the rat; experiment: Analgesic activity, brewer's yeast paw inflammation pressure test (derived from Randall and Selito); assay type: in vivo, rat (male Sprague-Dawley); conditions: 100 mg/kg oral, 1 hour after administration
Experimental: The analgesic activity of the products was studied on male Sprague-Dawley rats in groups of 15 by a method derived from that of Randall and Selito (Arch. Int. Pharmacodyn. 1957 (III) page 409). This method consists in causing a painful inflammation in the paw of the rat by injecting 0.1 ml of a 20% brewer's yeast solution, then applying a pressure to the inflammation and determining the value of the pressure at which a painful reaction of the animal appears.
The activity of the products was studied after 1 hour of administration by oral route at the rate of one dose of 100 mg/kg in comparison with untreated animals. In this test aspirin was chosen as reference substance.
The analgesic effect of the products is expressed by the percentage increase of the pressure endured by the treated animals in relation to that endured by the untreated animals.
The results of the analgesic activity of the product tested are expressed in relation to the activity of aspirin administered by oral route at a dose of 100 mg/kg.

[6] = reference substances, mice, intravenous

Structure (SMILES) | Spasmolytic activity compared with hexamethonium dibromide [1] | spasmolytic index/hexamethonium dibromide [1] | Local anaesthetic activity: effect compared with lidocaine [2] | local anaesthesia/lidocaine hydrochloride index [2] | Spasmolytic activity compared with papaverine hydrochloride [3] | spasmolytic index/papaverine hydrochloride [3] | LD50 at 192 h ([4]; iv) | relative index of spasmolytic activity compared with papaverine [3] | Analgesic activity in relation to aspirin [5] | LD50 at 192 h [4, 6]
CCC(COCc1cc(OC)c(OC)c(OC)c1)(NC)c1ccccc1 (stereo not drawn) [Example 12, 1-[(3,4,5-trimethoxy)benzyloxymethyl]-1-phenyl-N-methyl-n-propylamine] | 2.3 | 4.09 | 1.7 | 1.84 | 1.2 | 1.24 | 34 mg/kg |  |  | 
Cc1ccc(COCC(C)(c2ccc(Cl)c(Cl)c2)N(C)C)cc1 (stereo not drawn) [Example 15] |  |  |  |  |  |  | 160 mg/kg |  |  | 
COc1ccc(CC(C)(N)COCc2ccccc2)cc1OC (stereo not drawn) [Example 17, 1-Benzyloxymethyl-1-methyl-(3,4-dimethoxy)-phenethyl-amine] |  |  |  |  |  |  | 51.6 mg/kg |  |  | 
CCC(COc1ccc(OC)cc1)(c1ccccc1)N(C)C (stereo not drawn) [Example 21, 1-[(4-methoxy)phenoxymethyl]-1-phenyl-N,N-dimethyl-n-propylamine] | 1.7 | 11.33 | 0.45 | 2.00 | 1.7 | 7.28 | 140 mg/kg | up to seven |  | 
CCC(COCc1ccccc1)(c1ccccc1)N(C)C (stereo not drawn) [Example 3, 1-Benzyloxymethyl-1-phenyl-N,N-dimethyl-n-propylamine] | 3.4 | 6.69 | 1.4 | 1.85 | 0.9 | 1.125 | 41.4 mg/kg |  |  | 
CCCCCCCCCCOCC(CC)(c1ccccc1)N(C)C (stereo not drawn) [Example 5] | 2.2 | 3.85 |  |  | 0.5 | 0.56 | 37 mg/kg |  | 2.5 | 
CC(=O)Oc1ccccc1C(=O)O [aspirin, reference compound] |  |  |  |  |  |  |  |  | 1 | 
COc1ccc(CC(C)(COCc2ccccc2)N(C)C)cc1OC (stereo not drawn) [Example 18] |  |  |  |  |  |  | 27.3 mg/kg |  |  | 
C[N+](C)(C)CCCCCC[N+](C)(C)C [hexamethonium, reference compound] |  |  |  |  |  |  |  |  |  | 21 mg/kg
CCC(COc1ccccn1)(c1ccccc1)N(C)C (stereo not drawn) [Example 7] | 1.0 | 1.75 | 1.1 | 1.30 | 1.7 | 1.89 | 37 mg/kg |  |  | 
CCC(COCc1ccc(OC)c(OC)c1)(c1ccccc1)N(C)C (stereo not drawn) [Example 1, 1-[(3,4-dimethoxy)benzyloxymethyl]-1-phenyl-N,N-dimethyl-n-propylamine] | 0.9 | 1.29 | 1.6 | 1.52 | 2.7 | 2.45 | 30 mg/kg |  | 1 | 
CCC(COCc1ccc(C)cc1)(c1ccccc1)N(C)C (stereo not drawn) [Example 6] |  |  |  |  |  |  | 48.6 mg/kg |  |  | 
COc1ccc(CCC(C)(COCc2cc(OC)c(OC)c(OC)c2)N(C)C)cc1OC (stereo not drawn) [Example 19] |  |  | 0.95 | 0.92 |  |  | 30.7 mg/kg |  |  | 
CCC(CN(C)C)(OCc1cc(OC)c(OC)c(OC)c1)c1ccccc1 (stereo not drawn) [Example 11, 2-[(3,4,5-trimethoxy)benzyloxy]-2-phenyl-N,N-dimethyl-n-butylamine] | 2.6 | 5.76 | 1.0 | 1.49 | 1.9 | 2.69 | 46.7 mg/kg |  | 2.3 | 
CCC(COCc1ccccn1)(c1ccccc1)N(C)C (stereo not drawn) [Example 9] | 1.4 | 2.62 | 0.7 | 0.875 | 0.4 | 0.475 | 39 mg/kg |  |  | 
CCC(COCc1cccnc1)(c1ccccc1)N(C)C (stereo not drawn) [Example 10] | 1.7 | 3.50 |  |  | 0.4 | 0.525 | 43 mg/kg |  | 1.8 | 
CCCCOCC(CC)(c1ccccc1)N(C)C (stereo not drawn) [Example 4] |  |  |  |  |  |  | 26.8 mg/kg |  |  | 
COc1ccc(C(C)(COCc2ccc(Cl)cc2)N(C)C)cc1 (stereo not drawn) [Example 13] |  |  | 1.1 | 1.71 |  |  | 48.4 mg/kg |  |  | 
CCC(CN(C)C)(Oc1ccc(OC)cc1)c1ccccc1 (stereo not drawn) [Example 22, 2-[(4-methoxy)phenoxy]-2-phenyl-N,N-dimethyl-n-butylamine] |  |  |  |  |  |  | 59.6 mg/kg |  |  | 
COc1ccc(Cc2nccc3cc(OC)c(OC)cc23)cc1OC [papaverine, reference compound] |  |  |  |  |  |  |  |  |  | 33.1 mg/kg
CCC(COCc1cc(OC)c(OC)c(OC)c1)(c1ccccc1)N(C)C (stereo not drawn) [Example 2, 1-[(3,4,5-trimethoxy)benzyloxymethyl]-1-phenyl-N,N-dimethyl-n-propylamine] | 1.2 | 2.42 | 2.2 | 2.95 | 5.4 | 6.90 | 42 mg/kg | up to seven |  | 
